Reference: US20080171750A1, “Modulation Of Neurogenesis With Use of Modafinil” (BrainCells, Inc., priority 2007, published 2008)
Where two headings read alike, the source gives them in different places.

What was measured:
mGluR2 = mGluR2 (Homo sapiens, UniProt Q14416); conditions: read-out: IC50 against mGluR2; cited from earlier work
mGluR3 = mGluR3 (Homo sapiens, UniProt Q14832); conditions: read-out: IC50 against mGluR3; cited from earlier work
[1] = test system: Group I or Group III receptors; conditions: at sub-mM concentrations; cited from earlier work
[2] = test system: KA, AMPA, and NMDA iGlu receptors; conditions: cited from earlier work
human mGlu3 receptors = human mGlu3 receptors (Homo sapiens, UniProt Q14832); conditions: low nanomolar range; read-out: EC50 against human mGlu3 receptors in vitro; cited from earlier work
human mGlu2 receptors = human mGlu2 receptors (Homo sapiens, UniProt Q14416); conditions: low nanomolar range; read-out: EC50 against human mGlu2 receptors in vitro; cited from earlier work
[3] = test system: Human neural stem cells (hNSCs); test: Neuronal differentiation of human neural stem cells (TUJ-1 staining); format: cell-based; conditions: for maximum neuronal differentiation percent of positive control: basal media values subtracted, 0.01 μM to 31.6 μM
Description: Mitogen-free test media with a positive control for neuronal differentiation was used along with basal media without growth factors as a negative control.
The presence of synergy was determined by use of a combination index (CI). […] The CI is a quantitative measure of the nature of drug interactions, comparing the EC50's of two compounds, when each is assayed alone, to the EC50 of each compound when assayed in combination. The combination index (CI) is equal to the following formula: […]
where C1 and C2 are the concentrations of a first and a second compound, respectively, resulting in 50% activity in neuronal differentiation when assayed in combination; and IC1 and IC2 are the concentrations of each compound resulting in 50% activity when assayed independently.

[4] = test system: Human neural stem cells (hNSCs); test: Astrocyte differentiation of human neural stem cells (GFAP staining); format: cell-based
[5] = Homo sapiens, Neural stem cell, agent alone, concentration response curve 0.01 μM to 31.6 μM (antalarmin to 3.16 μM), modafinil batch of FIG. 1-3, read-out: EC50, neuronal differentiation, agent used alone
[6] = Homo sapiens, Neural stem cell, read-out: EC50, neuronal differentiation, agent alone (FIG. 8 experiment)

Sequence of mGluR3 (Q14832 23-879): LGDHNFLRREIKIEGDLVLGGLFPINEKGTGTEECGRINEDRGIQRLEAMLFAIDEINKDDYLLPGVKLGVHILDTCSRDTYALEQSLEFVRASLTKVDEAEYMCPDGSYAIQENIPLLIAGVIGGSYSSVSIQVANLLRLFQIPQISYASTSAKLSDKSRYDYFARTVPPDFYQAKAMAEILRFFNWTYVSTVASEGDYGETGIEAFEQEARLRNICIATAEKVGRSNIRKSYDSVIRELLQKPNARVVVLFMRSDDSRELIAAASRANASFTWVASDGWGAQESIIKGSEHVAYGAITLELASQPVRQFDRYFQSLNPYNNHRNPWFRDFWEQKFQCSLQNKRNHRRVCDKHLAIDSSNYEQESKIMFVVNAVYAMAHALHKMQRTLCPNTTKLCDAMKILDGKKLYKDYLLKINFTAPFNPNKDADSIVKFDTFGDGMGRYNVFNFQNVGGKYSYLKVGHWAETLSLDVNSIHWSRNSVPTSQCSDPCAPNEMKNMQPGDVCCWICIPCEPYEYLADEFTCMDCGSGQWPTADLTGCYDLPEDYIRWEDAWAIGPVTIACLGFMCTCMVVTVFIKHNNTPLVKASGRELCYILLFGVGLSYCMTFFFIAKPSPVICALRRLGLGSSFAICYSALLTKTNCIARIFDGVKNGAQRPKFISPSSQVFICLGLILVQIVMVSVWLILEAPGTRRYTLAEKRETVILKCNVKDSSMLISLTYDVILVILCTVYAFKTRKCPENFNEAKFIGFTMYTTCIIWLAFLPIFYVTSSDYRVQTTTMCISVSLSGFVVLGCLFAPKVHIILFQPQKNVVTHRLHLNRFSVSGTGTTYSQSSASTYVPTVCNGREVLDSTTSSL
Sequence of human mGlu3 receptors (Q14832 23-879): as above
Sequence of mGluR2 (Q14416 19-872): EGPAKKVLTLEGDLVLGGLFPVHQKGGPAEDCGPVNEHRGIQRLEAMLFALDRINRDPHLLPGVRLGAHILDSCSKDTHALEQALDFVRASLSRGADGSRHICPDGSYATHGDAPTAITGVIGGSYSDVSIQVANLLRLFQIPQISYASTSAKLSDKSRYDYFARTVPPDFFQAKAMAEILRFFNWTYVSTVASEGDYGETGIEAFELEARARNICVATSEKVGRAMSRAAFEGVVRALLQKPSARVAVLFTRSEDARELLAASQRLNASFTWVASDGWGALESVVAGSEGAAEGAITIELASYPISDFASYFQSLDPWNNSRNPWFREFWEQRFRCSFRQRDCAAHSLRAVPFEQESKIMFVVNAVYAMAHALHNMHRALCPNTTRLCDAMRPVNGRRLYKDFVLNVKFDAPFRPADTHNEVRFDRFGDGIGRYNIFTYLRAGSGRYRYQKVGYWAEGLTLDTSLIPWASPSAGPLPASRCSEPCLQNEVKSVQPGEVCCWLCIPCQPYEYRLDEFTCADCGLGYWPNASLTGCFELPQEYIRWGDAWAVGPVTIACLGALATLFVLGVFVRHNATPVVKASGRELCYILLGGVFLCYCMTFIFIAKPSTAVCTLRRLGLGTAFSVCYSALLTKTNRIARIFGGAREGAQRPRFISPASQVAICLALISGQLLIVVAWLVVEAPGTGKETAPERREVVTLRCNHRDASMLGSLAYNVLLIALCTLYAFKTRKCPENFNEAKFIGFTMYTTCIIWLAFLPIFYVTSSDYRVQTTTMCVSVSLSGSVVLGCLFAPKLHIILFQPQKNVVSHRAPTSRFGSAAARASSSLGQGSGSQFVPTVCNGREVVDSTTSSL
Sequence of human mGlu2 receptors (Q14416 19-872): as above

In the case of `NC1(C(=O)O)CCc2cc(P(=O)(O)O)ccc21` (racemic) [APICA, (RS)-1-amino-5-phosphonoindan-1-carboxylic acid], the IC50 (mGluR2) is given as roughly 30 µM, the IC50 (mGluR3) is given as roughly 30 µM and the “activity against Group I or Group III receptors” value [1] is given as “no appreciable activity”.

In the case of `N[C@](CC1c2ccccc2Oc2ccccc21)(C(=O)O)[C@H]1C[C@@H]1C(=O)O` [LY341495, (2S)-2-amino-2-(1S,2S-2-carboxycycloprop-1-yl)-3-(xanth-9-yl) propanoic acid], the “activity against KA, AMPA, and NMDA iGlu receptors” value [2] is given as “substantially inactive”.

For `N[C@@]1(C(=O)O)CO[C@H]2[C@H](C(=O)O)[C@H]21` [LY379268, (−)-2-Oxa-4-aminobicyclohexane-4,6-dicarboxylic acid], the EC50 (human mGlu3 receptors) is given as less than 0.01 µM and the EC50 (human mGlu2 receptors) is given as less than 0.01 µM.

In the case of `Cc1oc2nc3c(c(NC(=O)CN4CCCC4=O)c2c1C)CCCC3` [MKC-231], the EC50 ([3]; agent alone, concentration response curve 0.01 μM to 31.6 μM (antalarmin to 3.16 μM), modafinil batch of FIG. 1-3, read-out: EC50, neuronal differentiation, agent used alone) is reported as 3.9 µM and the “maximum neuronal differentiation percent of positive control” value (from here on “maximum neuronal differentiation percent”) [3] is reported as 53%.

Work on `CC(=O)NCCCS(=O)(=O)O` [acamprosate] yielded an EC50 [3, 5] of roughly 39.2 µM.

In the case of `CCCCN(CC)c1nc(C)nc2c1c(C)c(C)n2-c1c(C)cc(C)cc1C` [antalarmin], the EC50 [3, 5] is reported as roughly 34.9 µM.

With `NC(=O)C[S@@+]([O-])C(c1ccccc1)c1ccccc1` [armodafinil, (−)-2-[(R)-(diphenylmethyl)-sulfinyl]acetamide] the EC50 [3, 6] was roughly 1.24 µM.

Work on `CN1C(=O)COc2c(C(=O)NC3CN4CCC3CC4)cc(Cl)cc21` (stereo not shown) [azasetron] yielded an EC50 [3, 5] of roughly 9.1 µM.

With `O=C1CC2(CCCC2)CC(=O)N1CCCCN1CCN(c2ncccn2)CC1` [buspirone] the “maximum astrocyte differentiation percent of positive control” value ([4]; basal media values subtracted, 0.01 μM to 31.6 μM) was 59%, the EC50 [3, 5] was 8.4 µM and the “maximum neuronal differentiation percent” value [3] was 52%.

In the case of `NC(=O)C[S+]([O-])C(c1ccccc1)c1ccccc1` (stereo not shown) [modafinil, 2-benzhydrylsulfinylethanamide], the astrogenesis produced ([4]; modafinil alone) is reported as “little or no astrogenesis”, the EC50 [3, 6] is reported as 1.93 µM and the EC50 ([3]; Homo sapiens, Neural stem cell, read-out: EC50, neuronal differentiation, agent used alone) is reported as greater than 31.6 µM. For the same compound, the EC50 ([3]; Homo sapiens, Neural stem cell, read-out: EC50, neuronal differentiation, modafinil alone (batch 2)) was 2.9 µM, the EC50 ([3]; Homo sapiens, Neural stem cell, read-out: EC50 of modafinil alone, estimated based on extrapolation) was roughly 83 µM and the “maximum neuronal differentiation percent” value [3] was 19%.

Work on `NCCc1c[nH]c2ccc(O)cc12` [serotonin, 5-hydroxytryptamine] yielded an EC50 [3, 5] of roughly 6.9 µM.
